Reference: article PMC8008885 (Journal of Enzyme Inhibition and Medicinal Chemistry, 2021)
Read-outs that look alike come from different tables or passages of the source.

Key:
[1] = test system: HD (Q111/Q111) striatal cells; experiment: Western blot analysis of SETDB1 protein and H3K9me3 level in HD (Q111) cells; format: cell-based; details: HD (Q111) cell
Protocol: Cells were homogenised with Dounce homogeniser in […] of phosphate-buffered saline containing 0.4 mM sodium butyrate, 5% Triton X-100, 3 mM DTT, 1 mM sodium orthovanadate, 5 mM sodium fluoride, 3 mM PMSF, 3 mM DTT, 0.5 mg/ml leupeptin, and 10 mg/ml aprotinin as previously described. The nuclear pellets were collected and washed twice with the above-described 5% Triton buffer. Histones were extracted by solubilising in […] of 0.2 M HCl on a shaker for 2 h. After neutralising the pH of the acid-extracted solution containing the histone pool with ammonium acetate, the protein content was quantified. Each histone extract (an amount of […]) was placed onto each well of the dot blot apparatus pre-assembled with a nitrocellulose membrane and vacuumed for 30 min. After releasing the vacuum, the nitrocellulose membrane was removed and washed twice with TBS-T for 5 min. Then, the nitrocellulose membrane was blocked with 5% milk/TBS-T for 30 min and subsequently incubated with primary antibody in 5% milk/TBS-T for 24 h at cold room. The nitrocellulose membrane was washed twice with TBS-T for 5 min and incubated with secondary antibody in 1% milk (15 ml) for one hour at room temperature. After washing the membrane twice with TBS-T for 5 min, the immune reactivity was developed with Chemiluminescent Kit. […]

[2] = Pharmacokinetics after intravenous and oral administration to SD rats; format: in vivo, Sprague-Dawley (SD) male rats; details: rat, 10 mg/kg; for Kp at 2 h: brain/plasma, read-out: Brain-to-plasma (B/P) ratio at 2 h; for half-life: read-out: Terminal half-life
Excerpt: It is well known that the blood–brain barrier (BBB) is a key obstacle impeding the entry of drugs into the brain.

YAC128 mice = experiment: Rotarod test in HD transgenic (YAC128) mice; format: in vivo, mouse; details: i.p. five times a week, after 4 weeks, vs vehicle treated YAC128 mice
Protocol: YAC128 mice were bred with females from their background strain (B6CBAFI/J), and offspring were genotyped using PCR as previously described. All mice were weighed at 3 weeks of age and equally distributed according to weight and percentage within each cohort. […] The biochemical and behavioural/neuropathological symptoms of mice were determined after 4 weeks of drug administration. These procedures were performed in accordance with Guide for the Care and Use of Laboratory Animals guidelines. The animal protocol was approved by IACUC (Institutional Animal Care and Use Committee) in Hanyang University, Ansan, Republic of Korea.

[3] = male, Sprague-Dawley, plasma, intravenous
[4] = male, Sprague-Dawley, plasma, oral
[5] = male, Sprague-Dawley, intravenous, plasma
[6] = male, Sprague-Dawley, oral, plasma

With `C=CCOc1cccc2nc(N3CCCC3)ccc12` [APQ, 5-allyloxy-2-(pyrrolidin-1-yl)quinoline] the H3K9me3 level [1] was “reduced”, the SETDB1 protein levels ([1]; dose-dependent) was “significantly decreased” and the Kp at 2 h ([2]; male, Sprague-Dawley, intravenous) was 4.18. The Kp at 2 h ([2]; male, Sprague-Dawley, oral) was 0.44, the concentration at 2 h ([2]; male, Sprague-Dawley, brain, intravenous, read-out: Brain concentration at 2 h) was 407 ng/mL and the concentration at 2 h ([2]; male, Sprague-Dawley, brain, oral, read-out: Brain concentration at 2 h) was 3.7 ± 1.1 ng/mL. It also gave an MRT [2, 3] of 1.6 h, a clearance [2, 3] of 183 ± 26.1 mL/min/kg and a concentration at 8 h [2, 3] of 20 ng/mL. For the same molecule, the concentration at 2 h ([2]; male, Sprague-Dawley, plasma, intravenous, read-out: Plasma concentration at 2 h) was 100 ng/mL, the half-life [2, 3] was 2.55 ± 0.101 h and the Vd ([2]; male, Sprague-Dawley, plasma, intravenous, read-out: Vss) was 25.6 ± 5.2 L/kg. For the same molecule, the bioavailability ([2]; male, Sprague-Dawley, plasma, oral vs intravenous, read-out: F (bioavailability)) was 6.7%, the Cmax [2, 4] was 40 ± 10 ng/mL and the concentration at 8 h [2, 4] was 0 ng/mL. For the same molecule, the Tmax ([2]; male, Sprague-Dawley, plasma, oral, median (range)) was 1 h, the concentration at 2 h ([2]; male, Sprague-Dawley, plasma, oral, read-out: Plasma concentration at 2 h) was 10 ng/mL and the half-life [2, 4] was 1.58 ± 0.223 h. For the same molecule, the AUC(0-inf) [2, 5] was 923 ng·h/mL, the AUC(0-t) [2, 5] was 858 ng·h/mL and the AUC(0-inf) [2, 6] was 61.7 ng·h/mL. For the same molecule, the AUC(0-t) [2, 6] was 60.7 ng·h/mL, the “Ae (excreted amount)” value ([2]; intravenous) was 0.00% and the “Brain concentration at 2 h” value ([2]; intravenous) was 406.6 ± 81.3 ng/mL. The “Plasma concentration at 2 h” value ([2]; intravenous) was 100 ± 10 ng/mL, the “Ae (excreted amount)” value ([2]; oral) was 0.00% and the “motor behaviour (rotarod test)” value (YAC128 mice) was “significantly improved”.
